A word on the EC50: it is the concentration at which the effect is half-maximal. Usually melting point stands for the temperature, or range, at which the solid turns liquid.

In brackets after ≈: the same amount, converted by molar mass. Where two headings read alike, the source gives them in different places.

One data set concerns Brassica napus L. Description: Pre-emergence herbicidal inhibition assay, Petri dish test, BN. The class given is in vivo. Particulars: for EC50: Brassica napus, 168 h. The method, then: (§1) The pre-emergence activity of the compounds against monocot Echinochloa crus-galli (EC) and dicot Brassica napus L. (BN) was evaluated using the standard Petri dish test. The compounds were dissolved in DMF, emulsified with Tween-80 and diluted with water to form stock solutions, each of which was further diluted to a gradient of 100, 50, 25, 10 and 1 mg/L for test. The test solutions were added to Petri dishes lined with a filter paper, on which 10 seeds of EC and BN were placed. After cultured in an intelligent climate chamber with a humidity of 65% at 26 °C for 7 days, the corresponding EC50 values were calculated.

In another data set the test system is Echinochloa crus-galli. The data set is described as follows: Pre-emergence herbicidal inhibition assay, Petri dish test, EC. In kind it is in vivo. Particulars: for EC50: Echinochloa crus-galli, 168 h. The method, then: as §1
In a further data set the test system is Arabidopsis thaliana. Description: Arabidopsis growth inhibition assay (24-well plates, green channel pixel value). The settings on record: Arabidopsis thaliana, 240 h; for EC50: read-out: EC50 against Arabidopsis growth; for pest or weed control at 100 µg/mL: read-out: InR (%) against Arabidopsis.
The target in data set [1] is recombinant E. coli DXR (EcDXR) (Escherichia coli, UniProt P45568). Description: biochemical. The settings on record: read-out: InR (%) on DXR enzyme.
Setting [2] is: root, 7 days, read-out: EC50 BN Root.
The mark [3] stands for this setting: stalk, 7 days, read-out: EC50 BN Stalk.
[4] abbreviates: root, 7 days, read-out: EC50 EC Root.
Setting [5] is: stalk, 7 days, read-out: EC50 EC Stalk.

Chain of recombinant E. coli DXR (EcDXR) (P45568 whole entry): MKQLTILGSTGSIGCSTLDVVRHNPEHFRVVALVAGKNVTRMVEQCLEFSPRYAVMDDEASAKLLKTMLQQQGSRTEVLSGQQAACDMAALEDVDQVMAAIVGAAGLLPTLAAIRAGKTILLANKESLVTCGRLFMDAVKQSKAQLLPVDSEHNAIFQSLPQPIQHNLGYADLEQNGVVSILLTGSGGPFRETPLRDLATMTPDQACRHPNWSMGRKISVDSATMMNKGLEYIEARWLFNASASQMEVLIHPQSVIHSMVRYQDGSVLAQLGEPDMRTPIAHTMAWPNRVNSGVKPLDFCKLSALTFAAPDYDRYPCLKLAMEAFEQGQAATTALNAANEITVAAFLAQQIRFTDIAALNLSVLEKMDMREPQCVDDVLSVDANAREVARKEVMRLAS

For the compound `CC(C)c1n[nH]c(O)c1CC(P(=O)(O)O)P(=O)(O)O` [Compound 12d], the melting point is above 250 °C. Besides, in the data set with Brassica napus L. (setting [2]), the concentration giving a half-maximal response (EC50) was found to be 21.2 µg/mL (≈ 67.5 µM). Moreover, the EC50 in the data set with Brassica napus L. (setting [3]) is 41.5 µg/mL (≈ 132 µM). Further, in the data set with Echinochloa crus-galli (setting [4]), the EC50 was above 100 µg/mL. Further, the EC50 with Echinochloa crus-galli (setting [5]) is 39.1 µg/mL (≈ 124 µM). In the data set on Arabidopsis thaliana, the EC50 was above 100 µg/mL and the pest or weed control at 100 µg/mL amounted to 44.8%. Besides, the inhibition at 100 µM in data set [1] turned out to be 12.4%.

Compound `Cc1noc(C)c1CCP(=O)(O)O` [Compound 6e] returned a melting point above 250 °C. The EC50 in the data set with Brassica napus L. (read-out: EC50 BN Root) was above 100 µg/mL. Besides, in the data set with Brassica napus L. (read-out: EC50 BN Stalk), the EC50 worked out at 68.4 µg/mL (≈ 333 µM). For the same compound, the EC50 in the data set with Echinochloa crus-galli (read-out: EC50 EC Root) was above 100 µg/mL. The EC50 with Echinochloa crus-galli (read-out: EC50 EC Stalk) was found to be 54.1 µg/mL (≈ 264 µM). In the data set with Arabidopsis thaliana, the EC50 is above 100 µg/mL and the pest or weed control at 100 µg/mL turned out to be 12.3%. For the same compound, in data set [1], the inhibition at 100 µM came out at 12.1%.

In the case of `CCc1onc(O)c1CCP(=O)(O)O` [Compound 6b], the EC50 was 70.1 µg/mL (≈ 317 µM) in the data set with Brassica napus L. (read-out: EC50 BN Root); 65.8 µg/mL (≈ 298 µM) with Brassica napus L. (read-out: EC50 BN Stalk); 24.7 µg/mL (≈ 112 µM) in the data set with Echinochloa crus-galli (read-out: EC50 EC Root); 36.1 µg/mL (≈ 163 µM) in the data set with Echinochloa crus-galli (read-out: EC50 EC Stalk); above 100 µg/mL with Arabidopsis thaliana. The pest or weed control at 100 µg/mL with Arabidopsis thaliana stood at 46.5%. Besides, in data set [1], the inhibition at 100 µM came out at 19.5%.

`O=P(O)(O)C(Cc1c(C(F)(F)F)n[nH]c1O)P(=O)(O)O` [Compound 12e] yielded a melting point of 225 to 226 °C. Moreover, the EC50 in the data set on Brassica napus L. (setting [2]) is above 100 µg/mL. Further, in the data set with Brassica napus L. (setting [3]), the EC50 is 45.7 µg/mL (≈ 134 µM). The EC50 in the data set with Echinochloa crus-galli (setting [4]) came to 46.8 µg/mL (≈ 138 µM). Moreover, the EC50 in the data set on Echinochloa crus-galli (setting [5]) is above 100 µg/mL. Besides, in the data set with Arabidopsis thaliana, the EC50 is above 100 µg/mL and the pest or weed control at 100 µg/mL was determined as 31.5%. Besides, in data set [1], the inhibition at 100 µM worked out at 22.8%.

Compound `CC1(C)CON(CCCP(=O)(O)O)C1=O` [Compound 19] displayed a melting point above 250 °C. The EC50 in the data set on Brassica napus L. (setting [2]) was 79.3 µg/mL (≈ 334 µM). Also, the EC50 in the data set on Brassica napus L. (setting [3]) worked out at 39.2 µg/mL (≈ 165 µM). For the same compound, in the data set on Brassica napus L. (relative to FOS), the “Relative activity ratio (BN root)” value is listed as 0.4 fold and the “Relative activity ratio (BN stalk)” value was determined as 0.8 fold. In the data set on Echinochloa crus-galli (setting [4]), the EC50 was above 100 µg/mL. The EC50 with Echinochloa crus-galli (setting [5]) stood at 88 µg/mL (≈ 371 µM). Besides, in the data set with Echinochloa crus-galli (relative to FOS), the “Relative activity ratio (EC root)” value amounted to 0.4 fold and the “Relative activity ratio (EC stalk)” value is 0.4 fold. Also, in the data set with Arabidopsis thaliana, the EC50 is above 100 µg/mL and the pest or weed control at 100 µg/mL was found to be 43.2%. Further, the inhibition at 100 µM in data set [1] stood at 22.5%.

Turning to `CCc1n[nH]c(O)c1CC(P(=O)(O)O)P(=O)(O)O` [Compound 12b], the melting point is above 250 °C. Also, in the data set with Brassica napus L. (setting [2]), the EC50 turned out to be 61.6 µg/mL (≈ 205 µM). Besides, the EC50 in the data set on Brassica napus L. (setting [3]) was 24.5 µg/mL (≈ 81.6 µM). Besides, the concentration giving a half-maximal response (EC50) in the data set with Echinochloa crus-galli (setting [4]) was determined as 77.5 µg/mL (≈ 258 µM). The EC50 in the data set on Echinochloa crus-galli (setting [5]) was found to be 55.3 µg/mL (≈ 184 µM). For the same compound, in the data set with Arabidopsis thaliana, the EC50 is above 100 µg/mL and the pest or weed control at 100 µg/mL is 29.6%. Moreover, the inhibition at 100 µM in data set [1] is 21.9%.

For the compound `CCc1n[nH]c(CC)c1CCP(=O)(O)O` [Compound 5f], the melting point is above 250 °C. In addition, in the data set with Brassica napus L. (setting [2]), the EC50 is above 100 µg/mL. Moreover, the EC50 in the data set on Brassica napus L. (setting [3]) is above 100 µg/mL. Besides, the EC50 with Echinochloa crus-galli (setting [4]) was 71.6 µg/mL (≈ 308 µM). For the same compound, the EC50 with Echinochloa crus-galli (setting [5]) stood at 31.4 µg/mL (≈ 135 µM). For the same compound, in the data set on Arabidopsis thaliana, the EC50 is above 100 µg/mL and the pest or weed control at 100 µg/mL was 37.7%. Further, the inhibition at 100 µM in data set [1] stood at 32.4%.

For the compound `O=P(O)(O)C(Cc1c(C(F)F)n[nH]c1O)P(=O)(O)O` [Compound 12f], the melting point was in the range of 228 to 229 °C. Moreover, the concentration for a half-maximal effect (EC50) with Brassica napus L. (setting [2]) stood at 15.6 µg/mL (≈ 48.4 µM). Moreover, the EC50 with Brassica napus L. (setting [3]) was 22.3 µg/mL (≈ 69.2 µM). Also, the EC50 in the data set with Echinochloa crus-galli (setting [4]) stood at 36.5 µg/mL (≈ 113 µM). The EC50 with Echinochloa crus-galli (setting [5]) worked out at 12.6 µg/mL (≈ 39.1 µM). In addition, in the data set on Arabidopsis thaliana, the EC50 was above 100 µg/mL and the pest or weed control at 100 µg/mL worked out at 47%. Further, the inhibition at 100 µM in data set [1] was found to be 6.1%.

`Cc1noc(C)c1CC(P(=O)(O)O)P(=O)(O)O` [Compound 13g] returned a melting point above 250 °C. Also, in the data set with Brassica napus L. (setting [2]), the EC50 came to 60.4 µg/mL (≈ 212 µM). Further, the EC50 with Brassica napus L. (setting [3]) was found to be 41.5 µg/mL (≈ 146 µM). Also, the EC50 in the data set with Echinochloa crus-galli (setting [4]) was 79.8 µg/mL (≈ 280 µM). Besides, the EC50 in the data set on Echinochloa crus-galli (setting [5]) came out at 32.3 µg/mL (≈ 113 µM). Also, in the data set on Arabidopsis thaliana, the EC50 is above 100 µg/mL and the pest or weed control at 100 µg/mL is 39.7%. Further, the inhibition at 100 µM in data set [1] was determined as 7.3%.

Compound `Cc1n[nH]c(O)c1CC(P(=O)(O)O)P(=O)(O)O` [Compound 12a] registered a melting point above 250 °C. For the same compound, the concentration giving a half-maximal response (EC50) in the data set with Brassica napus L. (setting [2]) was 51.3 µg/mL (≈ 179 µM). Moreover, the EC50 in the data set on Brassica napus L. (setting [3]) stood at 87.1 µg/mL (≈ 304 µM). For the same compound, in the data set on Echinochloa crus-galli (setting [4]), the EC50 was above 100 µg/mL. For the same compound, the EC50 in the data set with Echinochloa crus-galli (setting [5]) stood at 47.7 µg/mL (≈ 167 µM). Also, in the data set on Arabidopsis thaliana, the EC50 was above 100 µg/mL and the pest or weed control at 100 µg/mL worked out at 47.2%. In addition, the inhibition at 100 µM in data set [1] was 13.7%.
